This is an account of results in patent US9586914B2, “Modulators of C3a receptors” (THE UNIVERSITY OF QUEENSLAND, priority 2011, dated 2017).

In general, EC50 refers to the concentration at which the effect is half-maximal.

Structures are written as SMILES. Where two headings read alike, the source gives them in different places.

The target in one test is T1, C3aR (Homo sapiens, UniProt Q16581).
T1 construct: peripheral blood mononuclear cells were isolated from buffy coat (obtained from Australian Red Cross Blood Service, Kelvin Grove); endogenous in cells; host or cells: primary human monocyte-derived macrophages (HMDM) differentiated from CD14+ monocytes of donor buffy coat
T1 sequence (Q16581 1-482): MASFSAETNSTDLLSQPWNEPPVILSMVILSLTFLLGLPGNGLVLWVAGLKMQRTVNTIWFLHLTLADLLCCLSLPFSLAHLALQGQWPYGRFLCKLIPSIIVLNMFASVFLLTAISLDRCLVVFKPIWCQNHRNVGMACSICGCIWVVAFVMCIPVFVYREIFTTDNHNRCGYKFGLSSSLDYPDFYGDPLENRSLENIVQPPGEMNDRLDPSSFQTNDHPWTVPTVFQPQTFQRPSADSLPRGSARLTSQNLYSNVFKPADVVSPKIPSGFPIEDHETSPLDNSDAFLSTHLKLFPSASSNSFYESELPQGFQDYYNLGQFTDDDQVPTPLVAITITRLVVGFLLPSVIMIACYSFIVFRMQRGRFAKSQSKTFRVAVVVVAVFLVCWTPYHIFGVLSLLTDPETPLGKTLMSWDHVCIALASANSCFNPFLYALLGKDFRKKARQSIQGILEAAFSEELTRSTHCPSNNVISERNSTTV
The experiment in a line: Calcium mobilization assay in HMDM (agonist/antagonist activity). The class given is cell-based. The conditions noted are these: for Emax at 10 µM: read-out: % agonist; for EC50: read-out: EC50. The procedure:
Harvested HMDM cells were washed with 0.9% NaCl solution by centrifugation at 2500 rpm for 5 min, followed by resuspension of the cell pellet with complete media. Cells were seeded at 5×10^4 cells/well in a 96-well black-wall, clear bottom plate (DKSH, Zurich), and left overnight to adhere at 37° C. On the day of the experiment, supernatant was removed and cells were incubated in dye loading buffer (Hank's Balanced Salt Solution (HBSS) with 4 μM Fluo-3, 25 μL pluronic acid, 1% fetal bovine serum (FBS) and 2.5 mM probenecid) for one hour at 37° C. Cells were then washed twice with HBSS and transferred to a Fluorostar spectrofluorimeter (BMG, Durham N.C.) for oxazole compound injection and fluorescence measurements.
Various compounds were examined in the calcium mobilization assay for agonist or antagonist activity compared to hC3a and to the known antagonist SB290157.
HMDMs were seeded into black-wall, clear bottom 96-well plates (Corning Incorporated, NY) at 50,000 cells/well and left to incubate at 37° C. with 5% CO2 overnight for cells to adhere. The medium was removed before being washed with the assay buffer (1×HBSS, 20 mM HEPES, 2.5 mM probenecid, pH 7.4). To each well was added 100 μL of dye-loading buffer made up of 12 mL calcium buffer, 1% FBS, 25 μL of Fluo-3 dye (final concentration of 4 μM) and 25 μL of 20% pluronic acid. The plate was covered in aluminium foil to protect the light-sensitive dye and left to incubate at 37° C. for 1 h. The dye-loading buffer was removed before the cells were washed with the assay buffer to remove excess loading dye. To each well was added 50 μL of fresh assay buffer before the plate was loaded into a FLIPR (Fluorescent Imaging Plate Reader) that can inject treatments and measure any calcium release. To generate agonist plots, calcium release was monitored for 300 seconds. To generate antagonist plots, calcium release was recorded for 900 seconds, which at the same time would allow incubation for the antagonists. After the initial incubation period, an agonist would be added and the response was recorded for 300 seconds. Intracellular release of calcium was recorded via fluorescence measurements at wavelength of 485 nm for excitation and 520 nm for emission.

The target of another test is T2, C3a receptor (C3aR) (Homo sapiens, UniProt Q16581).
T2 construct: peripheral blood mononuclear cells were isolated from buffy coat (obtained from Australian Red Cross Blood Service, Kelvin Grove); endogenous in cells; host or cells: primary human monocyte-derived macrophages (HMDM) differentiated from CD14+ monocytes of donor buffy coat
T2 sequence (Q16581 1-482): T1 sequence (Q16581 1-482)
The test can be described thus: Competitive binding with [^125I]-C3a in HMDM. As to conditions: for -Log IC50: Table 14, binding affinity for C3aR on HMDM; for remaining activity at 20 µM: 1 h, read-out: %[^125I]-C3a binding. From the text:
For HMDM, peripheral blood mononuclear cells were isolated from buffy coat (obtained from Australian Red Cross Blood Service, Kelvin Grove) using Ficoll-paque density centrifugation (GE Healthcare Bio-Science, Uppsala, Sweden). CD^14+ monocytes were positively selected using CD^14+ MACS magnetic beads (Miltenyi Biotech, Auburn, Calif., USA). […] Cells were harvested by gentle scraping in saline solution and replated for use on Day 7. […] Unbound radioactivity was removed by filtration through glass microfiber filters GF/B (Whatman Iner. […] The filter was washed 3 times with cold buffer (50 mM Tris-HCl) pH 7.4. […] The −log IC50 for each compound was calculated for separate experiments and express as an arithmetic mean standard error (SE). IC50 values were expressed as a geometric mean.

[1] abbreviates: Table 10, HMDM, read-out: Antagonist Activity Ca^2+ IC50.
Setting [2] is: Table 6, competitive binding with [^125I]-C3a, HMDM, read-out: IC50 (converted).
Setting [3] is: Table 8, HMDM, read-out: Receptor Binding Affinity ^125I IC50.
Setting [4] is: Table 9, Ca^2+ mobilization, HMDM.
The mark [5] stands for this setting: Table 13, calcium release from HMDM, read-out: Antagonist Activity IC50.
Where [6] appears, read: Table 6, competitive binding with [^125I]-C3a, HMDM.

Regarding `Cc1nc(C(c2ccccc2)c2ccccc2)oc1C(=O)N[C@@H](CCCNC(=N)N)C(=O)O` [Compound 58, 2-Diphenylmethyl-4-methyl oxazole-5-carboxyl-Arg-OH], the IC50 on C3aR (setting [1]) was 2.9 µM; on C3a receptor (C3aR) (setting [2]) it was 0.606 µM; at C3a receptor (C3aR) (Table 6, competitive binding with [^125I]-C3a, HMDM, read-out: pIC50 ± SEM (converted)), 0.603 µM; on C3a receptor (C3aR) (setting [3]), 0.012 µM; at C3a receptor (C3aR) (Table 12, read-out: Receptor Binding Affinity IC50) it was 0.606 µM. In addition, on C3aR (Table 12), the “Apparent Agonist Activity pEC50 ± SE (symbol)” value is “φ (compound showed no agonist activity up to 100 μM.)”. Also, the “-Log IC50” value at C3a receptor (C3aR) was 7.0.
As for `Cc1oc([C@H](CC(C)C)NC(=O)NCc2ccccc2)nc1C(=O)N[C@@H](CCCNC(=N)N)C(=O)O` [Compound 46, Benzylisocyanate-Leucine-5-Methyl-Oxazole-Arginine], the Emax at 10 µM on C3aR amounted to 50%. Besides, the remaining activity at 20 µM at C3a receptor (C3aR) was 61%.
For `CC(C)C[C@H](NC(=O)OC(C)(C)C)c1nc(C(=O)N[C@@H](CCONC(=N)N)C(=O)O)co1` [Compound 91, (S)-2-(2-((S)-1-((tert-butoxycarbonyl)amino)-3-methylbutyl)oxazole-4-carboxamido)-4-(guanidinooxy)butanoic acid], the EC50 on C3aR (setting [4]) came out at 0.37 µM. Further, at C3a receptor (C3aR) (setting [2]), the IC50 is 0.093 µM.
Turning to `CC(C)C[C@H](NC(=O)OC(C)(C)C)c1nc(C(=O)N[C@@H](CCCNC(=N)N)C(=O)NS(C)(=O)=O)co1` [Compound 93, tert-butyl ((S)-1-(4-(((S)-5-guanidino-1-(methylsulfonamido)-1-oxopentan-2-yl)carbamoyl)oxazol-2-yl)-3-methylbutyl)carbamate], the values for the IC50 on C3aR (setting [5]) and at C3a receptor (C3aR) (setting [2]) were 2 µM and 0.03 µM, respectively.
In the case of `COc1ccc(OC)c(CC(=O)N[C@@H](CC(C)C)c2nc(C(=O)N[C@@H](CCCNC(=N)N)C(=O)O)c(C)o2)c1` [Compound 44, 2,5-Dimethoxy-phenyl acetic acid-Leucine-5-Methyl-Oxazole-Arginine], the Emax at 10 µM on C3aR came to 69%. In addition, the remaining activity at 20 µM at C3a receptor (C3aR) stood at 42%.
On to `CC[C@H](C)[C@H](NC(=O)c1cncc(Br)c1)c1nc(C(=O)N[C@@H](CCCNC(=N)N)C(=O)O)co1` [Compound 20], for which, on C3aR (setting [4]), the “pEC50 ± SEM” value came out at 7.76 ± 0.36 and the EC50 came out at 0.017 µM. Besides, on C3a receptor (C3aR) (setting [6]), the “pIC50 ± SEM” value came out at 8.30 ± 0.10. For the same molecule, the IC50 at C3a receptor (C3aR) (setting [2]) was 0.005 µM.
Turning to `Cc1[nH]c([C@H](CC(C)C)NC(=O)OC(C)(C)C)nc1C(=O)N[C@@H](CCCNC(=N)N)C(=O)O` [Compound 80, Boc-Leucine-imidazole-Arginine-OH], the EC50 on C3aR (setting [4]) stood at 0.12 µM. Besides, the IC50 at C3a receptor (C3aR) (setting [2]) is 0.038 µM.
Regarding `Cc1oc([C@H](CC(C)C)NS(=O)(=O)c2ccccc2)nc1C(=O)N[C@@H](CCCNC(=N)N)C(=O)O` [Compound 40, Phenyl sulfonamide-Leucine-5-Methyl-Oxazole-Arginine], the Emax at 10 µM on C3aR stood at 103%. Further, the remaining activity at 20 µM on C3a receptor (C3aR) is 44%.
`CC(C)C[C@H](NC(=O)OC(C)(C)C)c1nc(C(=O)N[C@@H](CCCNC(=N)N)C(=O)NS(=O)(=O)c2ccccc2)co1` [Compound 92, tert-butyl ((S)-1-(4-(((S)-5-guanidino-1-oxo-1-(phenylsulfonamido)pentan-2-yl)carbamoyl)oxazol-2-yl)-3-methylbutyl)carbamate]: the IC50 was 1.3 µM at C3aR (setting [5]) and 0.0075 µM at C3a receptor (C3aR) (setting [2]).
For the molecule `Cc1oc([C@H](CC(C)C)NC(=O)c2cc3ccccc3s2)nc1C(=O)N[C@@H](CCCNC(=N)N)C(=O)O` [Compound 27, Benzothiophene-2-carboxylic acid-Leucine-5-Methyl-Oxazole-Arginin], the Emax at 10 µM on C3aR amounted to 62%. For the same molecule, the remaining activity at 20 µM on C3a receptor (C3aR) turned out to be 14%.
On the same counts, the results for `Cc1oc([C@H](CC(C)C)NC(=O)c2cc3ccccc3[nH]2)nc1C(=O)N[C@@H](CCCNC(=N)N)C(=O)O` [Compound 28, Indole-2-carboxylic acid-Leucine-5-Methyl-Oxazole-Arginine] are 56% and 26%.
On the same counts, the results for `COc1cccc(CC(=O)N[C@@H](CC(C)C)c2nc(C(=O)N[C@@H](CCCNC(=N)N)C(=O)O)c(C)o2)c1` [Compound 38, 3-Methoxy-phenylacetic acid-Leucine-5-Methyl-Oxazole-Arginin] are 87% and 41%.
`CC[C@H](C)[C@H](NC(=O)C(c1ccccc1)c1ccccc1)c1nc(C(=O)N[C@@H](CCCNC(=N)N)C(=O)O)co1` [Compound 7, Diphenyl Acetic Acid Isoleucine Oxazole Arginine]: on C3aR (setting [4]), the “pEC50 ± SEM” value came out at 5.25 ± 0.31 and the 50% effective concentration (EC50) is 5.6 µM. Besides, the “pIC50 ± SEM” value on C3a receptor (C3aR) (setting [6]) is listed as 6.86 ± 0.08. Also, at C3a receptor (C3aR) (setting [2]), the IC50 was 0.137 µM.
As to `N=C(N)NCCC[C@H](NC(=O)c1nc(C(c2ccccc2)c2ccccc2)no1)C(=O)O` [Compound 67, 3-Diphenylmethyl-1-oxa-2,4-diazole-5-carboxyl-Arginine-OH], the figures for the IC50 on C3aR (setting [1]) and at C3a receptor (C3aR) (setting [3]) were 1.3 µM and 0.011 µM, respectively. Moreover, the “-Log IC50” value at C3a receptor (C3aR) is 7.9.
Turning to `N#CN=C(N)NCCC[C@H](NC(=O)c1ccc(C(c2ccccc2)c2ccccc2)s1)C(=O)O` [Compound 95, (S)-2-(5-benzhydrylthiophene-2-carboxamido)-5-(2-cyanoguanidino)pentanoic acid], the IC50 at C3aR (setting [5]) was 0.9 µM; on C3a receptor (C3aR) (setting [2]) it was 0.853 µM.
For the molecule `COc1ccc(CC(=O)N[C@@H](CC(C)C)c2nc(C(=O)N[C@@H](CCCNC(=N)N)C(=O)O)c(C)o2)cc1` [Compound 39, 4-Methoxy-phenylacetic acid-Leucine-5-Methyl-Oxazole-Arginine], the Emax at 10 µM at C3aR is 26%. The remaining activity at 20 µM on C3a receptor (C3aR) stood at 40%.
The like results for `COc1ccccc1CC(=O)N[C@@H](CC(C)C)c1nc(C(=O)N[C@@H](CCCNC(=N)N)C(=O)O)c(C)o1` [Compound 37, 2-Methoxy-phenylacetic acid-Leucine-5-Methyl-Oxazole-Arginine] were, in that order, 81% and 43%.
`CC(C)C[C@H](NC(=O)OC(C)(C)C)c1nc(C(=O)N[C@@H](CCCN/C(N)=N\C#N)C(=O)O)co1` [Compound 90, (S)-2-(2-((S)-1-((tert-butoxycarbonyl)amino)-3-methylbutyl)oxazole-4-carboxamido)-5-((Z)-2-cyanoguanidino)pentanoic acid]: the EC50 on C3aR (setting [4]) amounted to 0.25 µM. Further, the IC50 at C3a receptor (C3aR) (setting [2]) is 0.041 µM.
For the molecule `CC[C@H](C)[C@H](NC(=O)c1cccc(OC)c1OC)c1nc(C(=O)N[C@@H](CCCNC(=N)N)C(=O)O)co1` [Compound 22, 2,3-dimethoxybenzoic acid-isoleucine-oxazole-arginine-OH], on C3aR (setting [4]), the “EC50 (nM)” value is given as “∞” and the “pEC50 ± SEM” value is “∞”. In addition, on C3a receptor (C3aR) (setting [6]), the “pIC50 ± SEM” value amounted to 6.15 ± 0.14. Further, the IC50 at C3a receptor (C3aR) (setting [2]) is 0.712 µM.
With `Cc1oc([C@H](CC(C)C)NC(=O)CC2CCCCC2)nc1C(=O)N[C@@H](CCCNC(=N)N)C(=O)O` [Compound 33, Cyclohexyl acetic acid-Leucine-5-Methyl-Oxazole-Arginine], on C3aR, the Emax at 10 µM came out at 69%. The remaining activity at 20 µM at C3a receptor (C3aR) was 26%.
